Among the data in article PMC6695594, “Discovery of (5-Phenylfuran-2-yl)methanamine Derivatives as New Human Sirtuin 2 Inhibitors” (Molecules, 2019) are inhibition and IC50 values, retold here.

Experiment [1] addresses T1, human sirtuin 2 (SIRT2) (Homo sapiens, UniProt Q8IXJ6).
T1 sequence (Q8IXJ6 2-389): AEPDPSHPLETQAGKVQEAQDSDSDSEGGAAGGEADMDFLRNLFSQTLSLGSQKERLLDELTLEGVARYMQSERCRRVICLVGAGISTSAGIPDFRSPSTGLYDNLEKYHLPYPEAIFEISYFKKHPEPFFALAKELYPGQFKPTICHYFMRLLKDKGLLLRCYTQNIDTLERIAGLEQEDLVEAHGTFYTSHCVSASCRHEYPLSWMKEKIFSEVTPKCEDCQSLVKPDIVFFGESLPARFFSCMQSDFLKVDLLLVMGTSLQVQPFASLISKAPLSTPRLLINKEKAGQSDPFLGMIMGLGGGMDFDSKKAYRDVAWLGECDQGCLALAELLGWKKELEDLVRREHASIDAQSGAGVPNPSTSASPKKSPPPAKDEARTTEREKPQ
Put plainly: biochemical. Further details: Fluorogenic p2270 (Ac-Glu-Thr-Asp-Lys(Dec)-AMC) trypsin-coupled assay on recombinant human SIRT2, ex 380/em 460 nm. Conditions: for inhibition at 10 µM: read-out: Inhibition% ^1/SIRT2-p2270 / @ 10 μM. The method, then:
This study tested the inhibitory activities of the synthesized compounds against recombinant human SIRT2 proteins using a fluorogenic substrate p2270(Ac-Glu-Thr-Asp-Lys(Dec)-AMC)-coupled trypsin assay. The assay buffer is 25 mM Tris–HCl pH 8.0, 150 mM NaCl, and 10% glycerol. The test compounds were added to 60 μL of reaction mixture containing SIRT2 enzymes (0.2 μM), and each compound was prepared in a 3-fold dilution series (300 μM–15 nM) with the final DMSO concentration < 1%. After incubation at 25 °C for 30 min, the reaction started by the addition of the substrate p2270 ([…]) and NAD^+([…]) at 25 °C. After 2 h, 50 μL 3~4 U/μL trypsin and 4 mM nicotinamide were added to terminate the reaction, followed by further incubation for 30 min at 25 °C. The fluorescence intensity was measured using a microplate reader (λex = 380 nm, λem = 460 nm). All determinations were performed in triplicate. The IC50 values were obtained using GraphPad Prism software as described previously. The enzyme activity assays were performed using a fluorogenic-based method, and Ac-Glu-Thr-Asp-Lys(Dec)-AMC, termed p2270, was used as the substrate. The SAR studies with all of the synthesized (5-phenylfuran-2-yl)methanamine derivatives (Table 1 and Table 2) were carried out. The compounds bearing various linkers or different substituents (A moiety) at 3- or 4-position of the [compound left out] of (5-phenylfuran-2-yl)methanamine scaffold (Table 1) were firstly investigated.

For experiment [2], the target named is T1, human sirtuin 2 (SIRT2). As to the kind of experiment: fluorogenic p2270 trypsin-coupled assay, recombinant human SIRT2. It is filed as biochemical. Conditions: read-out: Inhibition% ^1/SIRT2-p2270 / @ 100 μM.
Experiment [3] deals with T1, human sirtuin 2 (SIRT2). The experiment is described as above. The experiment is classed as biochemical.

As for `N#C/C(=C\c1ccc(-c2cc(Cl)ccc2Cl)o1)C(=O)Nc1cccc2ncccc12` [AGK2], the inhibition at 10 µM on human sirtuin 2 (SIRT2) [1] was 30 ± 5%. In addition, the inhibition at 100 µM on human sirtuin 2 (SIRT2) [1] (read-out: Inhibition% ^1/SIRT2-p2270 / @ 100 μM) came to 80 ± 6%.

On to `O=C(NCc1ccc(-c2cc(Cl)ccc2Cl)o1)Nc1cccc2ncccc12` [compound 12, 1-((5-(2,5-Dichlorophenyl)furan-2-yl)methyl)-3-(quinolin-5-yl)urea], for which, at human sirtuin 2 (SIRT2) [2], the inhibition at 100 µM worked out at 60 ± 3%. Also, on human sirtuin 2 (SIRT2) [1], the inhibition at 10 µM was determined as 33 ± 3%.

Regarding `CCOC(=O)c1ccc(-c2ccc(CNC(=O)Nc3cccnc3)o2)cc1` [compound 17, Ethyl 4-(5-((3-(pyridin-3-yl)ureido)methyl)furan-2-yl)benzoate], the inhibition at 100 µM at human sirtuin 2 (SIRT2) [2] turned out to be 50 ± 4%.

Consider `O=C(NCc1ccc(-c2ccc(C(F)(F)F)cc2)o1)Nc1cccnc1` [compound 18, 1-(Pyridin-3-yl)-3-((5-(4-(trifluoromethyl)phenyl)furan-2-yl)methyl)urea], for which the inhibition at 100 µM at human sirtuin 2 (SIRT2) [2] was 40 ± 5%.

For `O=C(NCc1ccc(-c2ccc(C(=O)O)cc2)o1)Nc1cccc2ncccc12` [compound 20, 4-(5-((3-(quinolin-5-yl)ureido)methyl)furan-2-yl)benzoic acid], the inhibition at 100 µM at human sirtuin 2 (SIRT2) [2] was determined as 63 ± 5%. For the same compound, the inhibition at 10 µM at human sirtuin 2 (SIRT2) [1] amounted to 35 ± 3%.

For the compound `O=C(NCc1ccc(-c2ccc(C(=O)O)cc2)o1)Nc1ccccc1` [compound 21, 4-(5-((3-Phenylureido)methyl)furan-2-yl)benzoic Acid], the inhibition at 100 µM at human sirtuin 2 (SIRT2) [2] amounted to 46 ± 4%. Moreover, the inhibition at 10 µM at human sirtuin 2 (SIRT2) [1] stood at 33 ± 3%.

`O=C(O)c1ccc(-c2ccc(CNC(=S)Nc3ccccc3)o2)cc1` [compound 22, 4-(5-((3-Phenylthioureido)methyl)furan-2-yl)benzoic Acid]: the inhibition at 100 µM at human sirtuin 2 (SIRT2) [2] is 44 ± 5%. Also, on human sirtuin 2 (SIRT2) [1], the inhibition at 10 µM was 23 ± 3%.

On to `O=C(NCc1ccc(-c2ccc(C(=O)O)c(O)c2)o1)Nc1ccccc1` [compound 24, 2-Hydroxy-4-(5-((3-phenylureido)methyl)furan-2-yl)benzoic Acid], for which the inhibition at 100 µM on human sirtuin 2 (SIRT2) [2] was determined as 43 ± 2%.

As to `O=C(NCc1ccc(-c2ccc(C(=O)O)cc2)o1)Nc1cccnc1` [compound 25, 4-(5-((3-(Pyridin-3-yl)ureido)methyl)furan-2-yl)benzoic Acid], at human sirtuin 2 (SIRT2) [3], the IC50 (as a rule, the midpoint of a concentration-inhibition curve) amounted to 2470 nM.
